This experiment deals with miR-124-3a and miR-let-7i. Put plainly: expression and bisulfite methylation of miR-124-3a and miR-let-7i after 5-Aza-dC. Format: cell-based, human. As to conditions: melanoma cells.

Description: PCR was performed using a 6-minute hot-start at 95° C., followed by 35 cycles at 94° C. for 20 s, 54° C. for 25 s, and 72° C. for 30 s, ending with a 10-min extension at 72° C. using AmpliTaq Gold (Applied Biosystems/Life Technologies). PCR products were gel purified using the QiaQuick gel extraction kit (QIAGEN) and cloned into the pCR4-TOPO vector (Invitrogen/Life Technologies). Nine clones for each miRNA candidate and 6 clones for each patient sample were sequenced using M13 primers and the BigDye terminator kit v1.1 (Applied Biosystems/Life Technologies), analyzed on a 3130×1 Genetic Analyzer (Applied Biosystems/Life Technologies), and aligned using Vector NTi AlignX (Invitrogen/Life Technologies).

As for `Nc1ncn([C@H]2C[C@H](O)[C@@H](CO)O2)c(=O)n1` [5AzadC, 5-aza-2′-deoxycytidine], the “expression and methylation levels of miR-124-3a and miR-let-7i” value is “not affected”.

(Values after patent publication US20130084328A1, “METHYLATED CODING AND NON-CODING RNA GENES AS DIAGNOSTIC AND THERAPEUTIC TOOLS FOR HUMAN MELANOMA” (Sanford-Burnham Medical Research Institute, priority 2011, published 2013).)
